Assay results published in patent publication US9381187B2, “Radiation countermeasure agents” (PALOMA PHARMACEUTICALS, INC., priority 2011, dated 2016).

How the values were obtained:
[1] = test system: HOS cells (human osteoblast cells); experiment: Cellular radioprotection, colony formation assay (cell survival after gamma radiation); format: cell-based; conditions: for survival: HOS cells under radioprotective treatment conditions (FIG. 2); for DRF: in vitro comparison with amifostine, HOS cells, gamma radiation (FIG. 2)
Experimental: Radiation protection by P529 is evaluated using a human osteoblast cell model (HOS cells). The effect of P529 (10 μM, 4 hr) on cell survival after radiation is assessed; cell survival was measured using the colony formation assay.

HOS cells = experiment: Chromosomal radiation protection, metaphase aberration scoring; format: cell-based, human; conditions: for Breaks / Fragments / Percent Aberrant Cells / Rings + Dicentrics: Radiation + P529 (25 uM, 12 hrs pre-radiation)
Experimental: Non-tumorigenic immortalized human osteosarcoma cells (HOS) are exposed to increasing doses of gamma radiation (O-4 Gy; 6.6 Gy/min). Control cells receive no drug; Drug-treated cells receive P529 (25 uM, 12 hrs pre-radiation). Metaphase plates are prepared from control and drug-treated cells (Gupta, Br J Radiol, 59:625 1986). A total of 100 metaphases are examined per group/dose. Aberrant metaphases, chromatid and chromosome breaks, fragments, rings, and dicentrics are scored under a light microscope. Aberrations are identified using criteria given by Savage (J Med Genetics 12:103-122, 1976).

[2] = test system: C57 mice exposed to gamma radiation; experiment: Mitigation of radiation effect in vivo (TBI 9 Gy); conditions: female C57 mice, 9 Gy gamma radiation; ip 100 μl on day 1 and days 3-26
Excerpt: Sixteen female C57 mice are exposed to gamma radiation (9 Gy). Group 1 received radiation only (no drug). Group 2 received radiation and P529 as noted in the following schedule: […]

## NCCCNCCSP(=O)(O)O [amifostine, reference compound]
[1]
  survival: 0.35
  DRF: 1.45

## COc1ccc(COc2cc3oc(=O)c4cc(C(C)O)ccc4c3cc2OC)cc1 (stereo not shown) [P529, 8-(1-Hydroxy-ethyl)-2-methoxy-3-(4-methoxy-benzyloxy)-benzo[c]chromen-6-one]
[1]; HOS cells pretreated 10 μM for 4 hr prior to gamma radiation, at the 0.005 survival fraction (FIG. 1)
  dose-reduction factor (DRF): 1.38
[1]
  survival: 0.99
  DRF: 1.34
[1]; pretreated 10 μM for 4 hr prior to radiation exposure
  radiation resistance of cells: significant radiation resistance
HOS cells; dose 0 Gy
  Breaks: .0016 ± .0002
  Fragments: .007 ± .0009
  Percent Aberrant Cells: .66 ± .07%
  Rings + Dicentrics: 0.00 ± 0.0
HOS cells; dose 1 Gy
  Breaks: .0013 ± .0002
  Fragments: .05 ± .006
  Percent Aberrant Cells: 3.1 ± .033%
  Rings + Dicentrics: 0.00 ± 0.0
HOS cells; dose 2 Gy
  Breaks: .0018 ± .0002
  Fragments: .118 ± .022
  Percent Aberrant Cells: 5.0 ± .052%
  Rings + Dicentrics: .003 ± .0004
HOS cells; dose 3 Gy
  Breaks: .0022 ± .0003
  Fragments: .23 ± .028
  Percent Aberrant Cells: 11.4 ± 1.22%
  Rings + Dicentrics: .005 ± .0004
HOS cells; dose 4 Gy
  Breaks: .0039 ± .0004
  Fragments: .30 ± .031
  Percent Aberrant Cells: 19.5 ± 1.29%
  Rings + Dicentrics: .017 ± .002
HOS cells; human HOS cells, Table 2
  chromosomal protection from radiation exposure: can provide chromosomal protection from radiation exposure
[2]
  mitigation of radiation effect and damage: can mitigate the radiation effect
